In patent US20100226857A1, “TUMOR CELL DIFFERENTIATION AGENTS AS CHEMICAL INHIBITORS AND TREATMENTS FOR INTRACELLULAR PARASITES” (priority 2006, published 2010):
In brackets after ≈: the same amount, converted by molar mass.

Assays:
[1] = test system: T. gondii tachyzoites; test: T. gondii tachyzoite proliferation assay in HS68 cells (tachyzoite count); type: cell-based, Toxoplasma gondii
Experimental: Parasite propagation—The RH strain of Toxoplasma gondii was grown in BM bovine macrophage cells or HS68 human foreskin fibroblast cells obtained from the American Type Culture Collection (Rockville, Md.). HS68 cells were grown in RPMI 1640 medium (Mediatech, Inc., Herndon, Va.) plus 10% fetal bovine serum (Atlanta Biologicals, Lawrenceville, Ga.), 1 mM sodium pyruvate and 100 U/ml each of penicillin and streptomycin. Parasites were harvested from infected cultures of HS68 cells growing in T-75 cm^2 flasks. After removing the culture medium, the cells were scraped into 5 ml of phosphate-buffered saline and a cell lysate obtained by passing through a 26-gauge needle. To purify the parasites, the cell lysate was filtered through a 3 micron (micrometer) filter.
(§1) Proliferation assays: HS68 cells were replica plated in 48-well dishes, and grown to confluence prior to infection with 5-10×10^4 freshly purified T. gondii tachyzoites/well. After 2 hours, the media and non-infective tachyzoites were removed, and replaced with RPMI medium containing 2% fetal bovine serum plus 1 mM sodium pyruvate, penicillin (100 U), streptomycin (100 U) and test agent or a vehicle control. The proliferation assays were terminated 48-72 hours post-infection when the untreated cells were heavily infected. All of the culture media were removed from the wells, and the tachyzoites in the media were fixed by dilution (1:1) into phosphate-buffered saline containing 10% formaldehyde. The tachyzoites were collected by brief centrifugation (30 seconds, […]) at room temperature using a tabletop microfuge. The tachyzoites were resuspended in 100 ul of phosphate-buffered saline, and duplicate aliquots were counted using a hemocytometer. […] The monolayer of HS68 cells in each well was fixed and stained for 5 minutes using a solution of 50% ethanol-5% formaldehyde-0.1% crystal violet in 0.85% sodium chloride, then rinsed with water, and air-dried. The minimum inhibitory concentration (MIC) of compounds that suppressed Toxoplasma-induced lysis of the HS68 cells was determined visually by counting the number of plaques/well in the monolayer.

[2] = test system: T. gondii; test: Plaque suppression / protection of HS68 monolayer from T. gondii; type: cell-based, Toxoplasma gondii
Experimental: as §1

[3] = test system: Cryptosporidium parvum; test: Real-time PCR analysis of C. parvum oocyst production in infected HCT-8 cells; type: cell-based; details: 48 hours, apicidin 70 ng/ml, SAHA 2.5 ug/ml; for % Reduction in oocysts numbers: vs 0.1% DMSO
Experimental: Monolayer cultures of HCT-8 human colon cells growing in 24-well plastic tissue culture dishes were infected with C. parvum oocysts for 3 hours. […] The cells were harvested, and DNA was extracted. The DNA was analyzed for the production of C. parvum oocysts from the infected cells using real-time PCR and DNA primers that specifically amplify the C. parvum oocysts wall protein (COWP).

[4] = test system: MCF-7 human breast cancer cells; test: ESR free radical (ROS) measurement in MCF-7 cell suspensions with DMPO; type: cell-based; details: for ESR signal indicative of ROS production in MCF-7 cells: 10 uM NSC3852, 8 uM NSC2039; for relative peak heights of the ESR signals (mean±range, n=2): 1×10^6 MCF-7 cells, 5 min at 37° C.
Experimental: Free Radical Measurements: All ESR measurements were conducted using a Bruker EMIR spectrometer (Bruker Instruments Inc., Billerica, Mass.) and a flat-cell assembly. Hyperfine couplings were measured (to 0.1 G) directly from magnetic field separation using potassium tetraperoxochromate (K3CrO8) and 1,1-diphenyl-2-picrylhydrazyl as reference standards. The relative radical concentration was estimated by multiplying half of the peak height by (ΔHpp)^2, where (ΔHpp) represents peak-to-peak width. The Acquisit program was used for data acquisitions and analyses. MCF-7 cells (2.0×10^6 cells/60-mm^2 dish) were harvested 48 h after plating by trypsinization and collected at room temperature by centnfugation (225 g, 5 min). Cells were washed once with ice-cold PBS and resuspended in ice-cold PBS at 2×10^6 cells/ml. Radical production was measured in the presence of the spin trap 5,5-dimethyl-1-pyrroline-N-oxide (DMPO; Aldrich Chemical Co., Milwaukee, Wis.). DMPO (200 mM) and 1×10^6 cells test agents were mixed in 1.0 ml of PBS, incubated at 37° C. for 5 mm, and then transferred to a flat cell for ESR measurements.

[5] = test system: MCF-7 cells; test: Comet assay for DNA damage; type: cell-based, human
Experimental: Comet Analysis: The comet assay is a single-cell gel electrophoresis method for measuring DNA damage. MCF-7 cells (2×10^5/35-mm^2 dish) were treated 12 h after plating. Twenty-four hours later, the cells were harvested and resuspended (1.5×10^5 cells/ml) in ice-cold PBS. The PBS cell suspension (50 ul) was mixed with 500 ul of 42° C. low-melting point agarose, spread evenly (75 ul) onto a Comet Slide (Trevigen, Gaithersburg, Md.), and allowed to harden. The slides were then immersed in ice-cold lysis solution (Trevigen) for 45 mm to lyse the cells and then transferred to freshly prepared alkali solution (300 mM NaOH and 1 mM EDTA, […]) for 45 mM. at room temperature to denature the DNA. Electrophoresis was performed at 4° C. Slides were air-dried overnight at room temperature and then stained with SYBR Green (Trevigen). Comets were visualized by fluorescence microscopy at 630× magnification with the aid of an antifade solution. Comet images were analyzed using the LAI Automated Comet Assay Analysis System (Loats Associates, Inc., Westminster, Md.). DNA damage was quantified in 80 comets per treatment/experiment using the tail moment [Tail moment [(% DNA) (distance traveled)]].

[6] = test system: MCF-7 cells; test: Colorimetric determination of reduced and oxidized glutathione; type: cell-based, human; details: after 1 h, P<0.05
Experimental: Colorimetric Determination of Reduced and Oxidized Glutathione: The GSH and GSSG concentrations in MCF-7 cells (3×10^6 cell/60 mm^2 dish) were measured enzymatically using the GSHI GSSG-412 kit (Oxis Research, Portland, Oreg.). GSSG and GSH standards were prepared in 5% metaphosphoric acid. Cell samples were prepared in 5% metaphosphoric acid with or without 1-methyl-2-vinyl-pyridium trifluoromethane sulfonate, a GSH-specific scavenger. Ellman's reagent (5′,5-dithiobis-2-nitrobenzoic acid) reacts with GSH to form a product with an absorption maximum at 412 nm. GSSG was determined using glutathione reductase to reduce GSSG to GSH followed by reaction with Ellman's reagent.

[7] = test system: MCF-7 cells; test: Cell death ELISA (apoptosis); type: cell-based, human
Experimental: Cell Death Enzyme-Linked Immunosorbent Assay: We quantified cytoplasmic nucleosomes using the Cell Death Detection […] kit (Roche Molecular Biochemicals, Indianapolis, Ind.) in MCF-7 cells plated in triplicate into 96-well plates. The cytoplasmic fractions from attached cells in each well were assayed in duplicate for the presence of nucleosomes according to the directions from the suppliers. The apoptotic response was measured by the nucleosome-enrichment fraction calculated as the ratio of the absorbance (405 nm) of drug-treated cultures/solvent-exposed cultures.

[8] = test system: T. gondii tachyzoites; test: NSC3852 inhibition of T. gondii tachyzoite proliferation in HS68 cells (Example 4); type: cell-based; details: Toxoplasma gondii, approximately 60 hours, n=5 experiments, read-out: median IC50 for inhibition of T. gondii tachyzoite proliferation
Experimental: Briefly, T. gondii tachyzoites (1×10^5) were introduced into individual wells in a 48-well culture dish containing confluent monolayers of host cells (normal human skin fibroblasts HS68). Approximately 60 hours later, the tachyzoites were harvested from the medium and counted. […] Data points wee the average of triplicate determinations at every concentration of NSC3852 used.

[9] = test system: HS68 human foreskin fibroblast cells; test: Toxicity to HS68 host cells; type: cell-based; details: 10 uM
[10] = test system: T. gondii tachyzoites; test: In vivo acute toxoplasmosis in mice (survival); set-up: species or system Toxoplasma gondii; CD-1 mice; details: TSA 0.5 mg/kg, SAHA 50 mg/kg, scriptaid 3.5 mg/kg i.p. once daily; valproic acid 300 mg/kg oral daily
Experimental: Specifically, female CD-1 mice (20 g) were inoculated in the sub-scapular region with 5,000 T. gondii tachyzoites on Day 0. […] The dose of scriptaid was not optimized in this experiment. In this study, valproic acid was administered orally in the drinking water at a dose of 300 mg/kg. Survival was monitored twice daily beginning on day 9 of the study. The results are depicted graphically in FIG. 5A and in tabular form in FIG. 5B.

[11] = test system: human tumor cell lines; details: variety of human tumor cell lines in tissue culture; cited from earlier work

## 4-phenylbutyrate
[1]; RH strain T. gondii in HS68 cells, 48-well plate, 48-72 hours post-infection, mean+/-SEM, read-out: IC50 (uM) Tachyzoite Count
  IC50: 5350 ± 2750 µM
[2]; MIC plaque suppression relative to IC50 tachyzoite count
  MIC IC50 (ratio MIC/IC50): 3.1
[2]; RH strain T. gondii in HS68 cells, 48-well plate, mean+/-SEM
  MIC (uM) Plaque Suppression: 16,700 ± 3300 uM

## CCC(=O)CCCCC[C@@H]1NC(=O)[C@H]2CCCCN2C(=O)[C@H]([C@@H](C)CC)NC(=O)[C@H](Cc2cn(OC)c3ccccc23)NC1=O [Apicidin]
[3]
  number of oocysts/ml (mean ± S.D. n = 6): 517.7 ± 417.1 oocysts/ml
  % Reduction in oocysts numbers: 92.2%

## Oc1cccc2cccnc12 [NSC2039, 8-quinolinol]
[4]
  ESR signal indicative of ROS production in MCF-7 cells: no signal was produced
[5]
  DNA damage (comet tail moment): did not induce DNA damage

## O=Nc1ccc(O)c2ncccc12 [NSC3852, 5-nitroso-8-quinolinol]
[4]; 2 uM
  relative peak heights of the ESR signals (mean±range, n=2): 70±4 mm
[4]
  ESR signal indicative of ROS production in MCF-7 cells: indicative of the DMPO-OH adduct, was observed
[4]; 10 uM
  relative peak heights of the ESR signals (mean±range, n=2): 109±3 mm
[6]
  decrease in [GSH]/[GSSG] compared with control cells: 20%
[5]
  DNA damage (comet tail moment): maximal at 24 h
[7]
  time of peak apoptosis: 48 h
[8]
  IC50: 0.079 µM

## O=C(CCCCCCC(=O)Nc1ccccc1)NO [SAHA, suberoylanilide hydroxamic acid]
[1]; tachyzoite IC50 vs literature tumor cell concentrations
  times tachyzoites are more sensitive than human tumor cells: 10-200 times
[2]; 1 uM, 48 hours
  state of HS68 monolayer of T. gondii-infected treated cells: completely intact
[2]; Toxoplasma gondii, RH strain T. gondii in HS68 cells, 48-well plate, mean+/-SEM, read-out: MIC (uM) Plaque Suppression
  MIC: 0.4 ± 0.1 µM (≈ 0.106 µg/mL)
[9]
  toxicity to HS68 cells at highest concentration tested: no discernable toxicity
[3]
  number of oocysts/ml (mean ± S.D. n = 6): 252.8 ± 280 oocysts/ml
  % Reduction in oocysts numbers: 96.2%
[10]
  control of acute toxoplasmosis in mice: showed in vivo efficacy
[11]
  concentration reducing tumor cell numbers and inducing tumor cell apoptosis: 1 to 20 µM
